Measured values reported in patent US10301295B2, “Herbicidal compounds” (Syngenta Participations AG, priority 2014, dated 2019).
Where two headings read alike, the source gives them in different places.

Key:
Assay type in all cases: in vivo
[1] = test system: Alopecurus myosuroides (ALOMY); experiment: Glasshouse assay for herbicidal activity, pre-/post-emergence (percentage phytotoxicity); conditions: Alopecurus myosuroides, Rate 250 g/ha, 100%=total damage, 0%=no damage
How it was run: (§1)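 Test plants are sown in pots of standard soil, held one day for pre-emergence or about twelve days for post-emergence, then treated. They grow on under glasshouse control with twice-daily watering, and damage is rated by eye as a percentage at 15 (post) or 20 (pre) days after application.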

Avena fatua (AVEFA) = experiment: as above; conditions: Avena fatua, Rate 250 g/ha, 100%=total damage, 0%=no damage
How it was run: as §1

[2] = test system: Echinochloa crus-galli (ECHCG); experiment: as above; conditions: Echinochloa crus-galli, Rate 250 g/ha, 100%=total damage, 0%=no damage
How it was run: as §1

Lolium perenne (LOLPE) = experiment: as above; conditions: Lolium perenne, Rate 250 g/ha, 100%=total damage, 0%=no damage
How it was run: as §1

wheat = experiment: Post-emergence herbicidal activity against cereal crops (wheat) +/- safener, crop selectivity; conditions: 100%=total damage to plant, 0%=no damage; for Post-emergence herbicidal activity against wheat (percentage phytotoxicity), +CQC: 250 g/ha, plus safener cloquintocet-mexyl (CQC) applied at 50 g/ha; for percent phytotoxicity (crop damage) to wheat at 250 g/ha: Triticum aestivum, 360 h, without safener, read-out: Post-emergence herbicidal activity against wheat (percentage phytotoxicity), Wheat - CQC
Experimental: Seeds of a variety of monocotyledonous and dicotyledonous test plants are sown in standard soil in pots. The plants are cultivated for one day (for pre-emergence) or for about 12 days (for post-emergence) under controlled conditions in a glasshouse (warm climate species at 24/18° C., cool climate species at 20/16° C., both at day/night; 16 hours light; 65% humidity). The test plants are then grown on, in a glasshouse (greenhouse) under controlled conditions (warm climate species at 24/18° C., cool climate species at 20/16° C., both at day/night; 16 hours light; 65% humidity) and are watered twice daily. 15 days after application of the test herbicide (15DAA) (for post-emergence), and 20 days after application of the test herbicide (20DAA) (for pre-emergence), the test plants are evaluated visually, and an assessed percentage phytotoxicity score is given for each herbicidal application on each plant species (with 100%=total damage to plant; 0%=no damage to plant).

[3] = 360 h, post-emergence, visual assessment 15 DAA, read-out: Post-emergence herbicidal activity (percentage phytotoxicity), ALOMY POST
[4] = 480 h, pre-emergence, visual assessment 20 DAA, read-out: Pre-emergence herbicidal activity (percentage phytotoxicity), ALOMY PRE
[5] = post-emergence, 360 h, post-emergence, visual assessment 15 DAA, read-out: Post-emergence herbicidal activity (percentage phytotoxicity), AVEFA POST
[6] = pre-emergence, 480 h, pre-emergence, visual assessment 20 DAA, read-out: Pre-emergence herbicidal activity (percentage phytotoxicity), AVEFA PRE
[7] = post-emergence, 360 h, post-emergence, visual assessment 15 DAA, read-out: Post-emergence herbicidal activity (percentage phytotoxicity), ECHCG POST
[8] = pre-emergence, 480 h, pre-emergence, visual assessment 20 DAA, read-out: Pre-emergence herbicidal activity (percentage phytotoxicity), ECHCG PRE
[9] = post-emergence, 360 h, post-emergence, visual assessment 15 DAA, read-out: Post-emergence herbicidal activity (percentage phytotoxicity), LOLPE POST
[10] = pre-emergence, 480 h, pre-emergence, visual assessment 20 DAA, read-out: Pre-emergence herbicidal activity (percentage phytotoxicity), LOLPE PRE

| SMILES | pest or weed control at 250 g/ha [1, 3] [%] | pest or weed control at 250 g/ha [1, 4] [%] | pest or weed control at 250 g/ha (Avena fatua (AVEFA); [5]) [%] | pest or weed control at 250 g/ha (Avena fatua (AVEFA); [6]) [%] | pest or weed control at 250 g/ha [2, 7] [%] | pest or weed control at 250 g/ha [2, 8] [%] | pest or weed control at 250 g/ha (Lolium perenne (LOLPE); [9]) [%] | pest or weed control at 250 g/ha (Lolium perenne (LOLPE); [10]) [%] | Post-emergence herbicidal activity against wheat (percentage phytotoxicity), +CQC (wheat) [%] | percent phytotoxicity (crop damage) to wheat at 250 g/ha (wheat) [%] |
| --- | --- | --- | --- | --- | --- | --- | --- | --- | --- | --- |
| Cc1cc(-c2ncc(Cl)cc2F)cc(C)c1C1C(=O)CC(CCNC(=O)NC(C)(C)C)C1=O.Cl (stereo not shown) [Compound A29] | 100 | 90 | 100 | 100 | 100 | 90 | 100 | 100 | 70 | 90 |
| Cc1cc(C)c(C2C(=O)CC(CCNC(=O)Nc3ncccn3)C2=O)c(C)c1 (stereo not shown) [Compound A30] | 90 | 80 | 80 | 80 | 90 | 60 | 80 | 90 | 40 | 70 |
| Cc1cc(C)c(C2C(=O)CC(CCNC(=O)N(C)C)C2=O)c(C)c1 (stereo not shown) [Compound A31] | 90 | 80 | 90 | 70 | 70 | 90 | 90 | 100 | 10 | 70 |
| Cc1cc(-n2cc(Cl)cn2)cc(C)c1C1C(=O)CC(CCNC(=O)Nc2ncccn2)C1=O.Cl (stereo not shown) [Compound A32] | 80 | 70 | 100 | 50 | 100 | 80 | 60 | 60 | 10 | 60 |
| Cc1cc(-n2cc(Cl)cn2)cc(C)c1C1C(=O)CC(CCNC(=O)Nc2ccncn2)C1=O.Cl (stereo not shown) [Compound A33] | 40 | 60 | 40 | 40 | 80 | 70 | 30 | 0 | 10 | 40 |
| Cc1cc(C)c(C2C(=O)CC(CCNc3ccc(C(F)(F)F)cn3)C2=O)c(C)c1 (stereo not shown) [Compound A34] | 90 | 90 | 90 | 80 | 100 | 100 | 90 | 100 | 70 | 80 |
| Cc1cc(C)c(C2C(=O)CC(CCNc3nc4ccc(Cl)cc4o3)C2=O)c(C)c1.Cl (stereo not shown) [Compound A35] | 90 | 70 | 70 | 60 | 100 | 80 | 100 | 100 | 60 | 80 |
